pEC50: −log10 of the molar value.
Biological target: T1, STING (Homo sapiens, UniProt Q86WV6, G230A/H232R/R293Q/R71H)
T1 construct: host or cells: THP1-Dual KO-IFNAR2 cells
Assay: STING reporter assay: luciferase reporter activity in THP1-Dual KO-IFNAR2 cells stimulated with 2′3′cGAMP
Type: cell-based
Conditions: 15 μM 2′3′cGAMP, 24h, read-out: hSTING EC50
Summary of the method: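 THP1-Dual KO-IFNAR2 cells (2×10E6 cells/mL) were exposed to compounds at 0.0017-100 μM, then stimulated with 2′3′cGAMP (15 μM final) transfected via Lipofectamine 2000. After 24h at 37° C., secreted luciferase in supernatant was read by QUANTI-Luc luminescence; EC50 derived from concentration-response.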

T1 sequence (Q86WV6 whole entry R71H/G230A/H232R/R293Q): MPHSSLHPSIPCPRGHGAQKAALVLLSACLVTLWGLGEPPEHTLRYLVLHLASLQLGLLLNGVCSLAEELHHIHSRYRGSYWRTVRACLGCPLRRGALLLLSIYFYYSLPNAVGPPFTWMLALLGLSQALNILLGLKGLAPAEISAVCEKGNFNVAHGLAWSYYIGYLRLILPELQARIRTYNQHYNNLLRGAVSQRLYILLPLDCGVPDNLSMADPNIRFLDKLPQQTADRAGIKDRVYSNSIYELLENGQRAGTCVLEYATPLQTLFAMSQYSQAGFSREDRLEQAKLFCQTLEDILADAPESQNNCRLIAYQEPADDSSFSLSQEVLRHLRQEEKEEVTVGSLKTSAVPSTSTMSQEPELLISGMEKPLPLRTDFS

| Compound | pEC50 |
| --- | --- |
| CN1C(=O)CCC1C(=O)Nc1c[nH]c2ccc(-c3cnn(-c4ccc(C(F)(F)F)cc4)c3)cc12 (centres unmarked) [Compound 252, 1-methyl-5-oxo-N-(5-(1-(4-(trifluoromethyl)phenyl)-1H-pyrazol-4-yl)-1H-indol-3-yl)pyrrolidine-2-carboxamide] | 5.30 to 6.00 |
| O=C(Nc1c[nH]c2ccc(-c3cnn(Cc4ccc(C(F)(F)F)cc4)c3)cc12)C1CCC1 [Compound 258, N-(5-(1-(4-(trifluoromethyl)benzyl)-1H-pyrazol-4-yl)-1H-indol-3-yl)cyclobutanecarboxamide] | 6.70 to 7.40 |
| COCC1(C(=O)Nc2c[nH]c3ccc(-c4cnn(-c5ccc(C(F)(F)F)cc5)c4)cc23)CCC1 [Compound 199, 1-(methoxymethyl)-N-(5-(1-(4-(trifluoromethyl)phenyl)-1H-pyrazol-4-yl)-1H-indol-3-yl)cyclobutane-1-carboxamide] | 5.30 to 6.00 |
| CN1CC(C(=O)Nc2c[nH]c3ccc(-c4cnn(-c5ccc(C(F)(F)F)cc5)c4)cc23)CCC1=O (centres unmarked) [Compound 224, 1-methyl-6-oxo-N-(5-(1-(4-(trifluoromethyl)phenyl)-1H-pyrazol-4-yl)-1H-indol-3-yl)piperidine-3-carboxamide] | 5.30 to 6.00 |
| CC(=O)Nc1c[nH]c2ccc(-c3cnn(-c4ccc(C5CC(F)(F)C5)c(Cl)c4)c3)cc12 [Compound 169, N-(5-(1-(3-chloro-4-(3,3-difluorocyclobutyl)phenyl)-1H-pyrazol-4-yl)-1H-indol-3-yl)acetamide] | 6.00 to 6.70 |
| CN1CCC1C(=O)Nc1c[nH]c2ccc(-c3cnn(-c4ccc(C(F)(F)F)cc4)c3)cc12 (centres unmarked) [Compound 254, 1-methyl-N-(5-(1-(4-(trifluoromethyl)phenyl)-1H-pyrazol-4-yl)-1H-indol-3-yl)azetidine-2-carboxamide] | 4.00 to 5.30 |
| O=C(Nc1c[nH]c2ccc(-c3cnn(-c4ccc(C(F)(F)F)cc4)c3)cc12)c1cnco1 [Compound 263, N-(5-(1-(4-(trifluoromethyl)phenyl)-1H-pyrazol-4-yl)-1H-indol-3-yl)oxazole-5-carboxamide] | 6.00 to 6.70 |
| CC1(C(=O)Nc2c[nH]c3ccc(-c4cnn(-c5ccc(C(F)(F)F)cc5)c4)cc23)COC1 [Compound 232, 3-methyl-N-(5-(1-(4-(trifluoromethyl)phenyl)-1H-pyrazol-4-yl)-1H-indol-3-yl)oxetane-3-carboxamide] | 6.00 to 6.70 |
| CCC(=O)Nc1c[nH]c2ccc(-c3cnn(-c4ccc(CC)cc4)c3)cc12 [Compound 151, N-(5-(1-(4-ethylphenyl)-1H-pyrazol-4-yl)-1H-indol-3-yl)propionamide] | 6.70 to 7.40 |
| CN1CC(C(=O)Nc2c[nH]c3ccc(-c4cnn(-c5ccc(C(F)(F)F)cc5)c4)cc23)C1=O (centres unmarked) [Compound 205, 1-methyl-2-oxo-N-(5-(1-(4-(trifluoromethyl)phenyl)-1H-pyrazol-4-yl)-1H-indol-3-yl)azetidine-3-carboxamide] | 5.30 to 6.00 |
| O=C(Nc1c[nH]c2ccc(-c3cnn(Cc4ccc(C(F)(F)F)cn4)c3)cc12)C1CCC1 [Compound 253, N-(5-(1-((5-(trifluoromethyl)pyridin-2-yl)methyl)-1H-pyrazol-4-yl)-1H-indol-3-yl)cyclobutanecarboxamide] | 6.00 to 6.70 |
| O=C(Nc1c[nH]c2ccc(-c3cnn(-c4ccc(C(F)(F)F)cc4)c3)cc12)C1CC(F)(F)C1 [Compound 236, 3,3-difluoro-N-(5-(1-(4-(trifluoromethyl)phenyl)-1H-pyrazol-4-yl)-1H-indol-3-yl)cyclobutane-1-carboxamide] | 6.00 to 6.70 |
| O=C(Nc1c[nH]c2ccc(-c3cnn(-c4ccc(C(F)(F)F)cc4)c3)cc12)C1CCC(F)(F)CC1 [Compound 237, 4,4-difluoro-N-(5-(1-(4-(trifluoromethyl)phenyl)-1H-pyrazol-4-yl)-1H-indol-3-yl)cyclohexane-1-carboxamide] | 6.00 to 6.70 |
| O=C(Nc1c[nH]c2ccc(-c3cnn(-c4ccc(C(F)(F)F)cc4)c3)cc12)c1cnoc1 [Compound 277, N-(5-(1-(4-(trifluoromethyl)phenyl)-1H-pyrazol-4-yl)-1H-indol-3-yl)isoxazole-4-carboxamide] | 4.00 to 5.30 |

Source: patent US20230365553A1, “COMPOUNDS AND COMPOSITIONS FOR TREATING CONDITIONS ASSOCIATED WITH STING ACTIVITY” (IFM Due, Inc., priority 2020, published 2023)
